# Laboratory results taken from patent US9247750B2, “Polyenylcyclopropanecarboxylic esters with high insecticidal activity” (Endura S.P.A., priority 2007, dated 2016).
# What was measured:
# Assay type in all cases: in vivo
# Culex quinquefasciatus [1] = assay: Insecticide effectiveness in the vapour phase against mosquitoes, impregnated paper unit in 20 m^3 room (Example 5); conditions: 5 mg/unit; for % mortality 24 h: 24th hour from start of test; for % Knock-down 8 h: at end of 8th hour; for Knock-down time KT10 / Knock-down time KT50 / Knock-down time KT90: average of 3 cages
# Experimental: (§1) Test units consisting of a paper support 20 cm×10 cm in size were impregnated with the compound of example 3 and, for comparative purposes, with the reference compounds transfluthrin and metofluthrin, at an amount of 5.00 mg/unit for each compound (pure).
# (§2) Using a common laboratory stand, the test unit was placed at a height of about 30 cm from the ground along one side of a 20 m^3 room (L 3.00 m×D 2.49 m×H 2.69 m). In order to homogenize the insecticidal air within the room, a small electric fan was placed on the floor diagonal to the surface of the unit, in the is nearest corner at a distance of about 50 cm from the unit. Three metal cages (L 8.4 cm×Ø 8.0 cm×mesh 1.0 mm) for every mosquito species, each containing 20 3-4 day old individuals of mixed sex, were placed along the other three sides of the room, at a height of 1.80 m from the ground and at a distance of 0.45 m from the respective walls. During the test the room was kept closed and temperature and humidity were controlled (T 23-26° C., RH 49-61%).
# (§3) The fan was switched on and left on for 8 continuous hours. The times needed to reach 10%, 50% and 90% insect knock-down (KT10, KT50 and KT90, respectively) were recorded.
# (§4) Every 2 hours and up to the 6th hour after the fan was switched on, new cages were introduced containing insects (set of 3 cages for each species).
# (§5) At the end of the 8th hour, the percentage of insects knocked down in all the cages was determined, then the insects were removed from the room and transferred into an uncontaminated atmosphere within closed containers containing a sugary solution. The percentage mortality was recorded at the 24th hour from the start of the test.
# (§6) The results obtained are summarized in tables 1 and 2 and the data are averages for the 3 cages.
# Aedes aegypti [2] = assay: as above; conditions: 5 mg/unit; for % mortality 24 h: 24th hour from start of test; for % Knock-down 8 h: at end of 8th hour; for Knock-down time KT10 / Knock-down time KT50 / Knock-down time KT90: average of 3 cages
# Experimental: as §1, §2, §3, §4, §5, §6
# Culex quinquefasciatus [3] = assay: Insecticide effectiveness in the vapour phase against mosquitoes, impregnated paper unit in 20 m^3 room (Example 9); conditions: 5 mg/unit; for % mortality 24 h: 24th hour from start of test; for % Knock-down 8 h: at end of 8th hour; for Knock-down time KT10 / Knock-down time KT50 / Knock-down time KT90: average of 3 cages
# Experimental: as §2, with “Test units consisting of a paper support 20 cm×10 cm in size were impregnated with the compound of examples 3, 7 and 8 and, for comparative purposes, with the reference compounds transfluthrin and metofluthrin, at an amount of 5.00 mg/unit for each compound (pure). Using” for “Using”, “the” for “the is”, “49-61%). The fan was switched on and left on for 8 continuous hours. The times needed to reach 10%, 50% and 90% insect knock-down (KT10, KT50 and KT90, respectively) were recorded.” for “49-61%).”
# as §4, §5, §6
# Aedes aegypti [4] = assay: as above; conditions: 5 mg/unit; for % mortality 24 h: 24th hour from start of test; for % Knock-down 8 h: at end of 8th hour; for Knock-down time KT10 / Knock-down time KT50 / Knock-down time KT90: average of 3 cages
# Experimental: as §2, with “Test units consisting of a paper support 20 cm×10 cm in size were impregnated with the compound of examples 3, 7 and 8 and, for comparative purposes, with the reference compounds transfluthrin and metofluthrin, at an amount of 5.00 mg/unit for each compound (pure). Using” for “Using”, “the” for “the is”, “49-61%). The fan was switched on and left on for 8 continuous hours. The times needed to reach 10%, 50% and 90% insect knock-down (KT10, KT50 and KT90, respectively) were recorded.” for “49-61%).”
# as §4, §5, §6
# Blattella germanica = assay: Effectiveness of residual insecticide on surfaces (glazed tiles) against cockroaches (Example 6); conditions: for Time to reach 100% knock-down followed by death: 50 mg/m^2 on glazed tiles
# Experimental: Solutions of the compound of example 3 in acetone and, for comparison, of the reference compounds Transfluthrin and Metofluthrin were applied from a distance of 12 cm onto glazed tiles (Ostara model, 15×15 cm=225 cm^2) by means of a suitable glass sprayer, so as to obtain an applied amount of pure compound equal to 50 mg/m^2. After treatment the tiles were transferred to and maintained in a closed test room at controlled temperature and humidity (24-25° C., RH 50-60%). Glass rings (H 5.5 cm×Ø 9.5 cm), with their internal surface treated with talc, and each containing 5 cockroaches, were positioned at the centre of the tiles for each of the assessment times of 24 hours, 3, 7, 10 and 14 days following treatment. For each assessment day, the insects were maintained on the surface for 24 hours and the time (hours, minutes) necessary to attain 100% knock-down followed by death, or percentage knock-down at the end of 24 hours, were recorded.
smiles,measurement,setting,value
"C=CC=C[C@@H]1[C@@H](C(=O)OCc2c(F)c(F)cc(F)c2F)C1(C)C (mixture of isomers) [Example 3, 2,3,5,6-tetrafluorobenzyl(1R,3R)-3-((E/Z)-Buta-1,3-dienyl)-2,2-dimethylcyclopropane-1-carboxylate]",% mortality 24 h,Culex quinquefasciatus [1]; insect exposure after 0 hours,100%
same,% Knock-down 8 h,Culex quinquefasciatus [1]; insect exposure after 0 hours,100%
same,Knock-down time KT10,Culex quinquefasciatus [1]; insect exposure after 0 hours,20 min
same,Knock-down time KT50,Culex quinquefasciatus [1]; insect exposure after 0 hours,23 min
same,Knock-down time KT90,Culex quinquefasciatus [1]; insect exposure after 0 hours,31 min
same,% mortality 24 h,Culex quinquefasciatus [1]; insect exposure after 2 hours,100%
same,% Knock-down 8 h,Culex quinquefasciatus [1]; insect exposure after 2 hours,100%
same,Knock-down time KT10,Culex quinquefasciatus [1]; insect exposure after 2 hours,6 min
same,Knock-down time KT50,Culex quinquefasciatus [1]; insect exposure after 2 hours,8 min
same,Knock-down time KT90,Culex quinquefasciatus [1]; insect exposure after 2 hours,12 min
same,% mortality 24 h,Culex quinquefasciatus [1]; insect exposure after 4 hours,100%
same,% Knock-down 8 h,Culex quinquefasciatus [1]; insect exposure after 4 hours,100%
same,Knock-down time KT10,Culex quinquefasciatus [1]; insect exposure after 4 hours,6 min
same,Knock-down time KT50,Culex quinquefasciatus [1]; insect exposure after 4 hours,10 min
same,Knock-down time KT90,Culex quinquefasciatus [1]; insect exposure after 4 hours,18 min
same,% mortality 24 h,Aedes aegypti [2]; insect exposure after 0 hours,100%
same,% Knock-down 8 h,Aedes aegypti [2]; insect exposure after 0 hours,100%
same,Knock-down time KT10,Aedes aegypti [2]; insect exposure after 0 hours,16 min
same,Knock-down time KT50,Aedes aegypti [2]; insect exposure after 0 hours,19 min
same,Knock-down time KT90,Aedes aegypti [2]; insect exposure after 0 hours,25 min
same,% mortality 24 h,Aedes aegypti [2]; insect exposure after 2 hours,100%
same,% Knock-down 8 h,Aedes aegypti [2]; insect exposure after 2 hours,100%
same,Knock-down time KT10,Aedes aegypti [2]; insect exposure after 2 hours,4 min
same,Knock-down time KT50,Aedes aegypti [2]; insect exposure after 2 hours,6 min
same,Knock-down time KT90,Aedes aegypti [2]; insect exposure after 2 hours,9 min
same,% mortality 24 h,Aedes aegypti [2]; insect exposure after 4 hours,100%
same,% Knock-down 8 h,Aedes aegypti [2]; insect exposure after 4 hours,100%
same,Knock-down time KT10,Aedes aegypti [2]; insect exposure after 4 hours,4 min
same,Knock-down time KT50,Aedes aegypti [2]; insect exposure after 4 hours,6 min
same,Knock-down time KT90,Aedes aegypti [2]; insect exposure after 4 hours,11 min
same,% mortality 24 h,Culex quinquefasciatus [3]; insect exposure after 0 hours,100%
same,% Knock-down 8 h,Culex quinquefasciatus [3]; insect exposure after 0 hours,100%
same,Knock-down time KT10,Culex quinquefasciatus [3]; insect exposure after 0 hours,23 min
same,Knock-down time KT50,Culex quinquefasciatus [3]; insect exposure after 0 hours,28 min
same,Knock-down time KT90,Culex quinquefasciatus [3]; insect exposure after 0 hours,35 min
same,% mortality 24 h,Culex quinquefasciatus [3]; insect exposure after 2 hours,100%
same,% Knock-down 8 h,Culex quinquefasciatus [3]; insect exposure after 2 hours,100%
same,Knock-down time KT10,Culex quinquefasciatus [3]; insect exposure after 2 hours,7 min
same,Knock-down time KT50,Culex quinquefasciatus [3]; insect exposure after 2 hours,11 min
same,Knock-down time KT90,Culex quinquefasciatus [3]; insect exposure after 2 hours,15 min
same,% mortality 24 h,Culex quinquefasciatus [3]; insect exposure after 4 hours,100%
same,% Knock-down 8 h,Culex quinquefasciatus [3]; insect exposure after 4 hours,100%
same,Knock-down time KT10,Culex quinquefasciatus [3]; insect exposure after 4 hours,8 min
same,Knock-down time KT50,Culex quinquefasciatus [3]; insect exposure after 4 hours,10 min
same,Knock-down time KT90,Culex quinquefasciatus [3]; insect exposure after 4 hours,14 min
same,% mortality 24 h,Aedes aegypti [4]; insect exposure after 0 hours,100%
same,% Knock-down 8 h,Aedes aegypti [4]; insect exposure after 0 hours,100%
same,Knock-down time KT10,Aedes aegypti [4]; insect exposure after 0 hours,16 min
same,Knock-down time KT50,Aedes aegypti [4]; insect exposure after 0 hours,20 min
same,Knock-down time KT90,Aedes aegypti [4]; insect exposure after 0 hours,26 min
same,% mortality 24 h,Aedes aegypti [4]; insect exposure after 2 hours,100%
same,% Knock-down 8 h,Aedes aegypti [4]; insect exposure after 2 hours,100%
same,Knock-down time KT10,Aedes aegypti [4]; insect exposure after 2 hours,5 min
same,Knock-down time KT50,Aedes aegypti [4]; insect exposure after 2 hours,8 min
same,Knock-down time KT90,Aedes aegypti [4]; insect exposure after 2 hours,11 min
same,% mortality 24 h,Aedes aegypti [4]; insect exposure after 4 hours,100%
same,% Knock-down 8 h,Aedes aegypti [4]; insect exposure after 4 hours,100%
same,Knock-down time KT10,Aedes aegypti [4]; insect exposure after 4 hours,5 min
same,Knock-down time KT50,Aedes aegypti [4]; insect exposure after 4 hours,8 min
same,Knock-down time KT90,Aedes aegypti [4]; insect exposure after 4 hours,12 min
same,Time to reach 100% knock-down followed by death,Blattella germanica; 1 day after treatment,15′ minutes
same,Time to reach 100% knock-down followed by death,Blattella germanica; 3 days after treatment,15′ minutes
same,Time to reach 100% knock-down followed by death,Blattella germanica; 7 days after treatment,15′ minutes
same,Time to reach 100% knock-down followed by death,Blattella germanica; 10 days after treatment,15′ minutes
same,Time to reach 100% knock-down followed by death,Blattella germanica; 14 days after treatment,15′ minutes
same,time of exposure to total knock-down (100%),Blattella germanica; table 3,≤ 15 min
